US11547681B2, “N-acylethanolamide derivatives and uses thereof” (ELIEM THERAPEUTICS, INC., priority 2016, dated 2023)

Assay: in vitro
Conditions: male; for Measured concentration of analyte PEA, 0 min / Measured concentration of analyte PEA, 10 min / Measured concentration of analyte PEA, 20 min / Measured concentration of analyte PEA, 30 min / Measured concentration of analyte PEA, 60 min / % Remaining of Initial, 0 min / % Remaining of Initial, 10 min / % Remaining of Initial, 20 min / % Remaining of Initial, 30 min / % Remaining of Initial, 60 min: 1 μM; for % Remaining of Initial, 0 min / % Remaining of Initial, 10 min / % Remaining of Initial, 20 min / % Remaining of Initial, 30 min / % Remaining of Initial, 60 min / microsomal CLint at 1 μM / half-life at 1 μM: microsomes; for % Remaining of Initial, 0 min: 0 h; for % Remaining of Initial, 30 min: 0.5 h; for % Remaining of Initial, 60 min: 1 h
Method: (§1) Reaction mixture, minus cofactors, was prepared as described below. Test article was added into the reaction mixture at a final concentration of 1 μM. […] An aliquot of the reaction mixture (without cofactor) was equilibrated in a shaking water bath at 37° C. for 3 minutes. The reaction was initiated by the addition of cofactor, and the mixture was incubated in a shaking water bath at 37° C. Aliquots (100 μL) were withdrawn at 0, 10, 20, 30, and 60 minutes. Test article samples were immediately combined with 300 μL of ice-cold acetonitrile containing 1% formic acid. Control samples were immediately combined with 400 μL of ice-cold 50/50 acetonitrile (ACN)/dH2O containing 0.1% formic acid and internal standard to terminate the reaction. Samples were then mixed and centrifuged to precipitate proteins. Calibration standards were prepared in matched matrix. Samples and standards were assayed by LC-MS/MS using electrospray ionization for both dosed prodrug and expected drug (PEA). Analytical conditions are outlined in Appendix 8-1. Test article concentration at each time point was compared to test article concentration at time 0 to determine the percent remaining at each time point. Half-lives were calculated using GraphPad software, fitting to a single-phase exponential decay equation.
Reaction mixture, minus cofactors, was prepared as described below. Test article was added into the reaction mixture at a final concentration of 1 μM. […] An aliquot of the reaction mixture (without cofactor) was equilibrated in a shaking water bath at 37° C. for 5 minutes. Reaction was initiated by the addition of cofactor, and the mixture was incubated in a shaking water bath at 37° C. Aliquots (100 μL) were withdrawn at 0, 10, 20, 30, and 60 minutes. Test article samples were immediately combined with 300 μL of ice-cold acetonitrile containing 1% formic acid. Control samples were immediately combined with 400 μL of ice-cold 50/50 acetonitrile (ACN)/dH2O containing 0.1% formic acid and internal standard to terminate the reaction. Samples were then mixed and centrifuged to precipitate proteins. Calibration standards were prepared in matched matrix. Samples and standards were assayed by LC-MS/MS using electrospray ionization for both the dosed prodrug and the expected drug (PEA). Analytical conditions are outlined in Appendix 10-1. Test article concentration at each time point was compared to the test article concentration at time 0 to determine the percent remaining at each time point. Half-lives were calculated using GraphPad software, fitting to a single-phase exponential decay equation.
as §1, with “minutes. Reaction” for “minutes. The reaction”, “300 μL,” for “300 μL”, “Appendix 13-1.” for “Appendix 8-1.”
Reaction mixture, minus cofactors, was prepared as described below.

| Compound | Measured concentration of analyte PEA, 0 min (Beagle, dog) | Measured concentration of analyte PEA, 10 min (Beagle, dog) | Measured concentration of analyte PEA, 20 min (Beagle, dog) | Measured concentration of analyte PEA, 30 min (Beagle, dog) | Measured concentration of analyte PEA, 60 min (Beagle, dog) | % Remaining of Initial, 0 min (Beagle, dog) | % Remaining of Initial, 10 min (Beagle, dog) | % Remaining of Initial, 20 min (Beagle, dog) | % Remaining of Initial, 30 min (Beagle, dog) | % Remaining of Initial, 60 min (Beagle, dog) | microsomal CLint at 1 μM (Beagle, dog) | half-life at 1 μM (Beagle, dog, Half-life) | Measured concentration of analyte PEA, 0 min (CD-1, mouse) | Measured concentration of analyte PEA, 10 min (CD-1, mouse) | Measured concentration of analyte PEA, 20 min (CD-1, mouse) | Measured concentration of analyte PEA, 30 min (CD-1, mouse) | Measured concentration of analyte PEA, 60 min (CD-1, mouse) | % Remaining of Initial, 0 min (CD-1, mouse) | % Remaining of Initial, 10 min (CD-1, mouse) | % Remaining of Initial, 20 min (CD-1, mouse) | other results |
| --- | --- | --- | --- | --- | --- | --- | --- | --- | --- | --- | --- | --- | --- | --- | --- | --- | --- | --- | --- | --- | --- |
| CCCCC/C=C\C/C=C\CCCCCCCC(=O)OCCNC(=O)CCCCCCCCCCCCCCC [Compound I-6] | 0.030 µM | 0.087 µM | 0.091 µM | 0.080 µM | 0.084 µM | 100% | 103% | 100% | 91% | 77% | < 23.1 µL/min/mg | > 60 min | 0.022 µM | 0.055 µM | 0.039 µM | 0.041 µM | 0.027 µM | 100% | 84% | 74% | % Remaining of Initial, 30 min (CD-1, mouse): 73%; % Remaining of Initial, 60 min (CD-1, mouse): 61%; microsomal CLint at 1 μM (CD-1, mouse): < 23.1 µL/min/mg; microsomal CLint at 1 μM (CD-1, mouse, calculated value in parentheses): 16.4 µL/min/mg; half-life at 1 μM (CD-1, mouse, Calculated half-life (in parentheses)): 84 min; half-life at 1 μM (CD-1, mouse, Half-life): > 60 min |
| CCCCCCCCCCCCCCCC(=O)NCCOC(=O)CCC(=O)OCC(O)CO (centres unmarked) [Compound I-9] | 0.39 µM | 0.42 µM | 0.32 µM | 0.26 µM | 0.18 µM | 100% | <1.0% | <1.0% | <1.0% | <1.0% | > 1380 µL/min/mg | < 1 min | 0.52 µM | 0.29 µM | 0.18 µM | 0.11 µM | 0.036 µM | 100% | <1.0% | <1.0% | % Remaining of Initial, 30 min (CD-1, mouse): <1.0%; % Remaining of Initial, 60 min (CD-1, mouse): <1.0%; microsomal CLint at 1 μM (CD-1, mouse): > 1380 µL/min/mg; half-life at 1 μM (CD-1, mouse, Half-life): < 1 min |
| CCCCCCCCCCCCCCCC(=O)NCCOC(=O)CCC(=O)OC[C@H]1O[C@@](CO)(O[C@H]2O[C@H](CO)[C@@H](O)[C@H](O)[C@H]2O)[C@@H](O)[C@@H]1O [Compound I-7] | 0.59 µM | 0.50 µM | 0.47 µM | 0.38 µM | 0.20 µM | 100% | 1.6% | 1.4% | 1.3% | <1.0% | 823 µL/min/mg | 1.7 min | 0.28 µM | 0.29 µM | 0.18 µM | 0.11 µM | 0.034 µM | 100% | 1.7% | 1.2% | % Remaining of Initial, 30 min (CD-1, mouse): <1.0%; % Remaining of Initial, 60 min (CD-1, mouse): <1.0%; microsomal CLint at 1 μM (CD-1, mouse): 814 µL/min/mg; half-life at 1 μM (CD-1, mouse, Half-life): 1.7 min |
